In patent US9863937B2, “Fluorescent molecular rotors” (Agency for Science, Technology and Research, priority 2012, dated 2018):
“Also recorded” adds a separate entry of the source. Values belong to the compound of their own block, whether it stands above or below them.

Experiments:
[1] = tested on: plasmid DNA; experiment: Rotor fluorescence with plasmid DNA; format: binding; settings: 100 uM rotor, 5 ug plasmid DNA
Protocol: 100 uM of Sybr green, Pyrene or CCVJ rotors were each added to either 5 ug plasmid DNA, 5 ug DNA with 500 mM NaOH, or PBS buffer only. Resulting fluorescence for each reaction mixture were then compared across the respective filters (Sybr 497/520, Pyrene 376/530, Julolidine 433/505).

[2] = tested on: p53 binding sequence duplex DNA; experiment: Rotor fluorescence with p53 binding sequence duplex DNA (intercalation); settings: FIG. 7
Protocol: For the first set with DNA only, 1×PBS buffer and p53 6× binding buffer were first added to the wells. Subsequently, rotor was added. Lastly, DNA was added. The combined solutions were mixed in each well and allowed to incubate in the dark at room temperature for, half an hour before data on fluorescence intensity was gathered.
(§1) Measurements were taken using Greiner 384 black flat-clear-bottom for 18 uL mixtures, Corning 96 flat-black half-area for 80 uL and 100 uL mixtures, and Tecan Infinite M-1000 Spectrophotometer.

[3] = molecular target: p53 protein binding to DNA (Homo sapiens, UniProt P04637); experiment: Fluorescence change of DNA-bound rotor on addition of p53 protein
Protocol: For the third set with DNA and p53, 1×PBS buffer and p53 6× binding buffer were first added to the wells. Subsequently, rotor was added and DNA was added. The combined solutions were mixed in each well and allowed to incubate in the dark at room temperature for half an hour before p53 was added. The combined solutions were then allowed to incubate in the dark at room temperature for another half an hour before data on fluorescence intensity was gathered.
6× binding buffer consists: 150 mM sodium phosphate buffer, 600 uM KCl, 24 mM DTT.
as §1

[4] = molecular target: streptavidin (Streptomyces avidinii, UniProt P22629); experiment: Fluorescence of rotor-biotin conjugate on addition of streptavidin; format: binding
Protocol: FIG. 4a depicts the emission spectra of a CCVJ molecular rotor bound to biotin with Streptavidin. […] 40 μM of rotor-biotin conjugate was incubated for 15 min with 50 μg of streptavidin. Fluorescence emission spectrum was measured using an excitation wavelength (λex) of 433 nm.

[5] = molecular target: MDM2 (Homo sapiens, UniProt Q00987); settings: unconjugated peptide, Table 9; ITC; read-out: Previously reported Kd value; cited from earlier work
Chain of MDM2 (Q00987 whole entry): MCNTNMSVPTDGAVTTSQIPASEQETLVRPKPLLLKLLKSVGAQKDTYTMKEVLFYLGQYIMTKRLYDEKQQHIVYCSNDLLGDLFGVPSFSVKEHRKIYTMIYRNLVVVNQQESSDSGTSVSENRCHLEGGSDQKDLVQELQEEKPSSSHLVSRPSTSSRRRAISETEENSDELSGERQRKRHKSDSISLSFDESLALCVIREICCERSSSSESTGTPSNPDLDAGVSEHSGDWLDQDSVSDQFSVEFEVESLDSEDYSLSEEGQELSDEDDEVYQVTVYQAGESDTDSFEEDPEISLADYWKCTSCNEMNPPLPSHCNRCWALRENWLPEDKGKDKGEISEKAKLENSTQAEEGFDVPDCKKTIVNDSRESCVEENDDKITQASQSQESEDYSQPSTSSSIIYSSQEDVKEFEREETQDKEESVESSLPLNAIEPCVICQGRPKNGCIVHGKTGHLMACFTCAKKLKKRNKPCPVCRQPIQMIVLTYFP

Chain of p53 protein binding to DNA (P04637 whole entry): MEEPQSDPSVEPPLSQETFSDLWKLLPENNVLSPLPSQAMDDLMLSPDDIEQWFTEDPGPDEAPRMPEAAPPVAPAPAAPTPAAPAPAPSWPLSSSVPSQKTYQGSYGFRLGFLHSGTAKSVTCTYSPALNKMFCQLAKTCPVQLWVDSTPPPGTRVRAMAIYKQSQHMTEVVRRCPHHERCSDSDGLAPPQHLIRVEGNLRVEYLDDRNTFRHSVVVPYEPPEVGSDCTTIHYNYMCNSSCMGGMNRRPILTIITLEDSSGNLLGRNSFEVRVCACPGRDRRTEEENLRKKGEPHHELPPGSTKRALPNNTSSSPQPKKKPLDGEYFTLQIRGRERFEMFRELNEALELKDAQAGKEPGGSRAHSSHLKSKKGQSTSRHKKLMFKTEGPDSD

Compound: N#C/C(=C\c1cc2c3c(c1)CCCN3CCC2)C(=O)O [CCVJ, 9-(2-carboxy-2-cyanovinyl) julolidine]
Fluorescence signal with plasmid DNA [1]: weak signal

Rotor:DNA ratio at saturation of fluorescence intensity [2]: 0.5 × rotor
Compound: CN(C)c1ccc2cc3ccc(N(C)C)c(/C=C(\C#N)C(=O)O)c3nc2c1 [acridine-based rotor]
Fluorescence change when p53 is added to DNA-bound rotor [3]: decreased fluorescence signal; also recorded: fluorescence intensity dropped

Compound: N#C/C(=C\c1cc2c3c(c1)CCCN3CCC2)C(=O)OCCNC(=O)CCCCC1SCC2NC(=O)NC21 (centres unmarked) [biotin-rotor probe]
Fluorescence increase on addition of streptavidin ([4]; 40 μM conjugate, 50 μg streptavidin, 15 min): 2 fold

Rotor:DNA ratio at saturation of fluorescence intensity [2]: 15 × rotor
Fluorescence change when p53 is added to DNA-bound rotor [3]: turn-off effect
Compound: C[n+]1ccc(/C=C/c2ccc3c(c2)c2cc(/C=C/c4cc[n+](C)cc4)ccc2n3-c2ccccc2)cc1 [carbazole-based (2-arm) rotor, 4,4′-((1E,1′E)-(9-phenyl-9H-carbazole-3,6-diyl)bis(ethene-2,1-diyl))bis(1-methylpyridin-1-ium)]

Rotor:DNA ratio at saturation of fluorescence intensity [2]: 15 × rotor
Compound: C[n+]1ccc(/C=C/c2ccc(-n3c4ccc(/C=C/c5cc[n+](C)cc5)cc4c4cc(/C=C/c5cc[n+](C)cc5)ccc43)cc2)cc1 [carbazole-based (3-arm) rotor, 4,4′-((1E,1′E)-(9-(4-((E)-2-(1-methylpyridin-1-ium-4-yl)vinyl)phenyl)-9H-carbazole-3,6-diyl)bis(ethene-2,1-diyl))bis(1-methylpyridin-1-ium)]

Compound: N#C/C(=C\c1ccc2ccc3cccc4ccc1c2c34)C(=O)O [pyrene-based molecular rotor]
Fluorescence change on binding to streptavidin ([4]; FIG. 4b): fluorescence increase

Rotor:DNA ratio at saturation of fluorescence intensity [2]: 15 × rotor
Compound: C[n+]1c(/C=C2/C=CN(CCCN)c3ccccc32)sc2ccccc21 [thiazole-based rotor]

Compound: MPRFMDYWEGLNK [JP2]
Kd [5]: 0.24 ± 0.0538 µM

Compound: MPRFMDYWEGLSK [JP1]
Kd [5]: 0.0188 ± 0.00503 µM
